Assay results from the supplement of paper PMC10307832.

Experiments:
Assay in all cases: relative viability (nuclei count vs DMSO), 5 days (fraction); higher = more cells survive
[1] = compound: C1=CC2=NC=CN=C2C=C1/C=C/3\C(=O)NC(=O)S3 + NC(=O)Nc1cc(-c2cccc(F)c2)sc1C(=O)N[C@H]1CCCNC1 [AZD7762] (partner 0.2 µM)
In short: (§1)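 Each reported value is a median over duplicate plates. It expresses relative viability: treated-well nuclei count divided by vehicle-well nuclei count. Lung cancer cell lines in 1536-well plates were dosed by pin tool a day after seeding, alone with one drug or with a fixed anchor-drug dose plus five library-drug doses (not always all listed) in √10 steps, and nuclei were counted after 5 days.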

[2] = compound: C1=CC2=NC=CN=C2C=C1/C=C/3\C(=O)NC(=O)S3 + O=C(c1cc(Cc2n[nH]c(=O)c3ccccc23)ccc1F)N1CCN(C(=O)C2CC2)CC1 [Olaparib] (partner 8 µM)
In short: as §1

[3] = compound: CCN1CCN(c2ccc(Nc3cc(N(C)C(=O)Nc4c(Cl)c(OC)cc(OC)c4Cl)ncn3)cc2)CC1 [BGJ398] + C[C@@H](Oc1cc(-c2cnn(C3CCNCC3)c2)cnc1N)c1c(Cl)ccc(F)c1Cl [Crizotinib] (partner 1 µM)
In short: as §1

[4] = compound: CCN1CCN(c2ccc(Nc3cc(N(C)C(=O)Nc4c(Cl)c(OC)cc(OC)c4Cl)ncn3)cc2)CC1 [BGJ398] + COc1cc2c(Oc3ccc(NC(=O)C4(C(=O)Nc5ccc(F)cc5)CC4)cc3F)ccnc2cc1OCCCN1CCOCC1 [Foretinib] (partner 0.25 µM)
In short: as §1

Cell Line	relative viability ([1]; first compound 0.02 µM)	relative viability ([1]; first compound 0.06325 µM)	relative viability ([1]; first compound 0.2 µM)	relative viability ([1]; first compound 0.6325 µM)	relative viability ([1]; first compound 2 µM)	relative viability ([2]; first compound 0.02 µM)	relative viability ([2]; first compound 0.06325 µM)	relative viability ([2]; first compound 0.2 µM)	relative viability ([2]; first compound 0.6325 µM)	relative viability ([2]; first compound 2 µM)	relative viability ([3]; first compound 0.01 µM)	relative viability ([3]; first compound 0.03162 µM)	relative viability ([3]; first compound 0.1 µM)	relative viability ([3]; first compound 0.3162 µM)	relative viability ([3]; first compound 1 µM)	relative viability ([4]; first compound 0.01 µM)	relative viability ([4]; first compound 0.03162 µM)	relative viability ([4]; first compound 0.1 µM)	relative viability ([4]; first compound 0.3162 µM)	relative viability ([4]; first compound 1 µM)
HCC-44	0.885	1	1.02	1.01	1	0.9	1.07	0.924	0.965	0.945	0.751	0.738	0.86	0.817	0.701					
HCC-78	0.681	0.567	0.684	0.732	0.202	0.792	0.72	0.786	0.861	0.619	0.379	0.313	0.394	0.334	0.348	0.563	0.597	0.504	0.614	0.549
HCC-366	0.276		0.247	0.235	0.303	0.318		0.374	0.351	0.373	0.474	0.66	0.768	0.627	0.59	0.924	0.883	0.944	0.89	1.08
IA-LM						0.404	1.02	0.797	0.836	0.871	0.91	0.996	0.657	0.908	0.793	1.2	1.08	1.42	1.15	1.14
NCI-H520						0.283	0.321	0.352	0.298	0.345	0.829	0.72	0.395	0.456	0.281	0.777	0.7	0.316	0.25	0.236
NCI-H522	0.811	0.919	1.07	0.772	0.86	0.593	0.561	0.723	0.677	0.545										
NCI-H661						0.682	0.733	0.733	0.746	0.715		0.94	0.926	0.983	0.916	0.889	1.06	1.14	0.932	0.982
NCI-H1299						1.01	0.961	1.01	0.928	1.01	0.94	0.864	0.951	0.969	0.97	1.09	1.06	1.09	1.15	1.03
NCI-H1395	0.392	0.393	0.424	0.372	0.411	0.43	0.427	0.464	0.5	0.438						0.877	0.955	0.819	0.756	0.614
NCI-H1563											0.875	0.812	0.846	0.794	0.728	0.924	0.931	0.946	0.814	0.752
NCI-H1623																0.907	0.723	0.937	0.84	0.713
NCI-H1648	0.659	0.562	0.806		0.706	0.795	0.547	0.886		0.563										
